# According to US20250145579A1, “PROCESS FOR MANUFACTURING AN LPXC ANALOG” (Zoetis Services LLC, priority 2022, published 2025):
# Entries after “also recorded” stand apart in the source; their conditions may differ.
# Assay: Relative stability of isolated solid forms (slurry experiments, XRD)
# Format: physicochemical
# Settings: for relative stability of the solid form: as isolated solids
# Description: A number of polymorphic forms of (R)-4-(4-(4-(2H-1,2,3-triazol-2-yl)phenyl)-2-oxopyridin-1 (2H)-yl)-N-hydroxy-2-methyl-2-(methylsulfonyl)-butanamide were prepared (Forms 1, 2 and 3) as API slurries in a number of protic and aprotic solvents. With the exception of acetonitrile, methyl ethyl ketone, and tetrahydrofuran, the use of aprotic solvents like ethyl, butyl or propyl acetate result in Form 1. With the exception of water, the use of protic solvents such as butyl, propyl and ethyl alcohol favor the formation of Form 2. An unstable Form 3 was also noted. The presence of water in alcohols increased the rate of Form 2 isolation from solution. […] The three forms were structurally related and were solvated and/or hydrated.
# The relative stability of the three isolated solid forms appears to be different as suspensions compared to isolated solids. […] As suspensions, the relative stability of these solvates is dependent on the solvent or solvent/water mixture that is present.
# It is very likely that these three solvated solids are nearly isostructural and differ in subtle ways that are linked to the way solvent or water are packed into the solvation sites in the structure. There is an increasing complexity of the XRD patterns with Form 1 being the most complex (most peaks) and Form 3 having the fewest peaks. This pattern complexity (F1>F2>F3) parallels the apparent stability of the dried isolated samples. Out of 384 solvent mixtures, a total of 90 samples were mixtures rather than pure phase Forms.
# The X-ray diffractograms were obtained on a Scintag X1 powder diffractometer equipped with a Peltier cooled solid state detector. Data were collected between 4 and 40° 20 using a 0.03° step size and data acquisition time was 45 to 60 minutes for sample characterization. Data collection for solids isolated from the bulk of the small scale preliminary experiments was at a 0.04° step size over 15 minutes between 7 and 37 degrees 2-theta. Copper Kα radiation (λ=1.54056 Å) was utilized and the tube voltage and amperage were set to 45 kV and 40 mA, respectively. […]
relative stability of the solid form,SMILES,stability of the solid form / form conversion (by XRD patterns of isolated solids from slurries)
meta-stable relative to Form 1,"C[C@@](CCn1ccc(-c2ccc(-n3nccn3)cc2)cc1=O)(C(=O)NO)S(C)(=O)=O [Form 2, (R)-4-(4-(4-(2H-1,2,3-triazol-2-yl)phenyl)-2-oxopyridin-1 (2H)-yl)-N-hydroxy-2-methyl-2-(methylsulfonyl)-butanamide]",–
–,"C[C@@](CCn1ccc(-c2ccc(-n3nccn3)cc2)cc1=O)(C(=O)NO)S(C)(=O)=O [Form 3, (R)-4-(4-(4-(2H-1,2,3-triazol-2-yl)phenyl)-2-oxopyridin-1 (2H)-yl)-N-hydroxy-2-methyl-2-(methylsulfonyl)-butanamide]",unstable; also recorded: meta-stable and converts to Form 2
most stable form,"C[C@@](CCn1ccc(-c2ccc(-n3nccn3)cc2)cc1=O)(C(=O)NO)S(C)(=O)=O [Form 1, (R)-4-(4-(4-(2H-1,2,3-triazol-2-yl)phenyl)-2-oxopyridin-1 (2H)-yl)-N-hydroxy-2-methyl-2-(methylsulfonyl)-butanamide]",–
